“Also recorded” adds a separate entry of the source.
Experiments:
[1] = test system: pp28-luciferase Towne CMV strain; experiment: Drug combination with GCV (Bliss model); assay type: cell-based, human cytomegalovirus; details: FIGS. 4D and E
Experimental: Drug combinations were performed as previously reported (33). Briefly, 2×10^6 HFFs were seeded in a 96-well plate and infected with the pp28-luciferase Towne CMV strain at MOI=1. First, a dose response curve was generated for each drug individually to determine its EC50. […] Luciferase activity of the combination and each drug individually was quantified at 72 hpi. The Bliss model was used to calculate the effect of each drug combination on pp28-luciferase activity. In this model, drug combination represents the product of two probabilistically independent events as described in the following equation (23):
[formula] Where D is the drug concentration, m is the slope, and EC50 is the effective concentration resulting in 50% virus inhibition. The combined effect of two inhibitors (FU, fractional unaffected) is computed as the product of individual effects of the two inhibitors, FU1 and FU2. If the ratio of observed fold inhibition divided by the expected fold inhibition is greater than 1, the compounds are synergistic. If the ratio is less than 1, the combination is considered antagonistic, and if it equals to 1 the combination is additive.

pp28-luciferase HCMV = experiment: Add-on and removal experiments; assay type: cell-based, human cytomegalovirus; details: luciferase at 72 hpi
Experimental: HFFs were infected with the pp28-luciferase HCMV as described above. At 0, 6, 12, 24, 36 and 48 hpi, the media were replaced by the media containing OZ418 or GCV. For time-of-removal studies, media containing the compounds were removed at 0, 6, 12, 24, 36 and 48 hpi, cells were then washed three times with PBS, and drug-free medium was added. The cells were incubated at 37° C., and luciferase assays were carried out at 72 hpi.

[2] = test system: HCMV in high density and low density HFFs; details: Roy S., 2015; cited from earlier work
non-infected HFFs [3] = details: literature report; cited from earlier work
[4] = test system: CDK 1, 2, 4, pRb and E2F1 expression; experiment: Immunoblot of CDKs, pRb and E2F1, HCMV-infected HFFs; assay type: cell-based, human
Experimental: (§1) Cell lysates were quantified for total protein content using Pierce bicinchoninic acid (BCA) protein assay kit (Thermo-Fisher Scientific, Waltham, Mass.). Equivalent amounts of protein were mixed with an equal volume of sample buffer (125 mM Tris-HCl [pH 6.8], 4% SDS 20% glycerol, 5% β-mercaptoethanol) and boiled at 100° C. for 10 min. Denatured proteins were resolved in Tris-glycine polyacrylamide gels (10% to 12%) and transferred to polyvinylidene difluoride membranes (Bio-Rad Laboratories, Hercules, Calif.) by electroblotting. Membranes were incubated in blocking solution (5% nonfat dry milk/BSA and 0.1% Tween 20 in PBS [PBST]) for 1 h, washed three times with PBST, and incubated primary antibodies diluted in 5% milk or BSA (for pRb) at 4° C. overnight. The membranes were washed with PBST, followed by incubation with horseradish peroxidase (HRP)-conjugated secondary antibodies in 5% milk/BSA for 1 h at room temperature. After three washing steps with PBST, protein bands were visualized by chemiluminescence using SuperSignal West Pico reagent (Pierce Chemical, Rockford, Ill.). […]

[5] = test system: pp28 luciferase-recombinant Towne HCMV; details: in the presence of viral DNA polymerase inhibitors; previously described; cited from earlier work
MTT cell viability assay = assay type: cell-based; details: human foreskin fibroblasts
Experimental: Six ozonizes have been tested for inhibition of HCMV replication and toxicity in human foreskin fibroblasts (Table 1, FIG. 1). The pp28 luciferase-recombinant Towne was used to measure HCMV replication, and an MTT assay—for cell viability.
Cells were seeded in 96-well plates, treated with various concentrations of ozonides and incubated at 37° C. for 3 days. Cell viability was determined by an MTT-based colorimetric assay (Sigma-Aldrich), and performed at the same time points as the antiviral assay.

[6] = test system: pp28 luciferase-recombinant Towne HCMV; experiment: pp28-luciferase Towne HCMV replication assay in HFFs; assay type: cell-based, human cytomegalovirus; details: for Selectivity index (SI): CC50/EC50; for EC50: Human betaherpesvirus 5
Experimental: (§2) Six ozonizes have been tested for inhibition of HCMV replication and toxicity in human foreskin fibroblasts (Table 1, FIG. 1). The pp28 luciferase-recombinant Towne was used to measure HCMV replication, and an MTT assay—for cell viability. […] (FIG. 1).
(§3) The pp28-luciferase Towne CMV strain was constructed as previously described (31). The recombinant virus expresses luciferase under the control of UL99 (pp28) late promoter 48-72 h post infection (hpi). […] Luciferase activity highly correlates with plaque reduction assay. The Towne CMV (ATCC VR-977) and TB40 strains (ATCC VR-1578) were used for plaque reduction, DNA replication, and cell cycle assays.
HFFs passage 12-16 (ATCC, CRL-2088) were grown in Dulbecco's Modified Eagle Medium (DMEM) containing 10% fetal bovine serum (FBS) (Gibco, Carlsbad, Calif.) in a 5% CO2 incubator at 37° C. and used for infection with pp28-luciferase Towne CMV. HCT116 (Human Colorectal Carcinoma) (ATCC, CCL-247) cells were maintained in DMEM containing 10% fetal bovine serum.
(§4) To determine the effect of cell density/cycling on the anti-HCMV activity of ozonides, HFFs were plated at 0.5×10^6, 1×10^6, 2×10^6 or 3×10^6 cells/96 well-plate 24 h prior to infection. Infection was carried out at multiplicity of infection of 1 PFU/cell (MOI=1). Following 90 minute adsorption, media containing virus was removed and replaced by DMEM with 4% FBS (Gibco) containing anti-viral compounds. Infected treated HFFs were collected at 72 hpi and pp28 activity was quantified by a Luciferase Assay Kit (Promega, Madison, Wis.) on GloMaxH-Multi+ Detection System (Promega) according to manufacturer's instructions.

non-infected HFFs [7] = experiment: Cell cycle progression by flow cytometry, non-infected HFFs; assay type: cell-based, human; details: non-infected cells, 30 μM, 24 h and 72 h
Experimental: (§5) To identify the cell cycle stage affected by OZ418, non-infected HFFs were serum starved for 72 h and then released in DMEM with 0% FBS (control for G0 arrest), 10% FBS (control for cell cycle progression), or 10% FBS plus OZ418 (30 μM), AS (30 μM), or GCV (30 μM) for 24 h and 72 h, respectively. To determine the effects of OZ418 on cell cycle progression in infected HFFs, 1.0×10^6 cells were serum starved for 72 h, and then infected with HCMV Towne strain (MOI=1) followed by treatment with OZ418 (30 μM), AS (30 μM), or GCV (5 μM) for 24 h and 72 h, respectively. The cells were collected by treatment with trypsin and then washed with PBS. The collected cells were fixed in 5 ml of cold 70% ethanol overnight at 4° C. and resuspended in […] of staining buffer (50 μg/ml propidium iodide [Sigma-Aldrich] and 0.2 mg/ml RNase A in PBS) for 45 min at 37° C. in 5% CO2. The samples were analyzed on an LSR II flow cytometer (BD Biosciences, San Jose, Calif.), and at least 10,000 cells were counted for each sample. Data analysis was performed using FlowJo software (Tree Star, USA). The percentage of cells in G1/S/G2-M is shown in each condition.

HCMV TB40 strain = experiment: Plaque reduction assay in HFFs; assay type: cell-based, human cytomegalovirus; details: Human betaherpesvirus 5, read-out: EC50 in plaque reduction assay
Experimental: as §2, §3
A plaque reduction assay was performed in HFFs. One day prior to infection, HFFs were seeded at 3×10^6 cells/24-well plate. The Towne CMV strain was diluted in DMEM to a desired titer which gave approximately 50 plaques/well and added to each well in quadruplicates. Plates were incubated for 90 minutes with shaking every 10 min; thereafter compounds were added and replenished every 3 days. After a 10-day incubation, cells were stained with crystal violet and plaques were counted at 40× magnification.

HCMV-infected HFFs = experiment: Cell cycle progression by flow cytometry, HCMV-infected HFFs; assay type: cell-based, human; details: HCMV-infected cells, 30 μM, 24 h and 72 h
Experimental: as §5

GCV-resistant CMV strain = experiment: Inhibition of GCV-resistant HCMV; assay type: cell-based, human cytomegalovirus; details: FIG. 3
Source text: FIG. 3A-3D illustrates activity of OZ418 against a GCV-resistant CMV strain. A. Dose response. B. Luciferase. C. HCMV proteins IE1/2, UL44, and pp65 detection. D. Plaque reduction assay.
A GCV-resistant strain was inhibited by OZ418 (FIG. 3).

[8] = test system: CDKs, pRB and E2F1 expression; experiment: Immunoblot of CDKs, pRb and E2F1, non-infected HFFs; assay type: cell-based, human
Experimental: as §1

[9] = test system: HCMV in high density and low density HFFs; experiment: Effect of cell density on anti-HCMV activity (pp28 luciferase); assay type: cell-based, human cytomegalovirus
Experimental: as §4

MCMV = experiment: Inhibition of mouse CMV replication in BALB/c mice; assay type: in vivo
Experimental: For infection experiments BALB/c mice, 4-6 week old, were purchased from Harlan Laboratories (Indianapolis, Ind.). The Animal Care and Use Committee of Johns Hopkins University approved the experimental procedures. After 2-3 days of adaptation to the housing environment, mice were randomly divided into several groups as follows: control, infected, infected+OZ418 1 mg/kg, 3 mg/kg or 10 mg/kg orally once daily, infected+AS 10 mg/kg orally twice daily, infected+GCV 10 mg/kg intraperitoneally twice daily. Mice were infected intraperitoneally with 10^6 PFU/mice (0.1 mL in […] saline) and all treatments were started at 24 hpi. Control mice received 0.1 ml of saline intraperitoneally. Control and infected mice received equivalent volumes of saline. Mice were sacrificed at day 14 after infection. Salivary glands, liver and spleen were harvested and stored at −80° C. Organs were homogenized in DMEM with 4% FBS at a final concentration of 100 mg/mL. Two million MEFs were seeded into 24-well plates. From each sample, 5% of the salivary gland homogenate or 10% of the liver homogenate was used for infection of MEFs in triplicates. Plaques were counted after three days.

HCMV entry = HCMV entry assay; assay type: cell-based; details: FIG. 4A
Experimental: To determine the time during HCMV replication that OZ418 was active an entry assay was performed (FIG. 4A).

## C[C@H]1[C@H](OC(=O)CCC(=O)O)O[C@@H]2O[C@@]3(C)CC[C@H]4[C@H](C)CC[C@@H]1[C@@]24OO3 [AS, Artesunate, reference compound]
[1]
  Combination effect with GCV against HCMV: synergistic activity with GCV
pp28-luciferase HCMV
  Timing of anti-HCMV activity: lost anti-HCMV activity when added after 24 h post infection
[2]
  Cell-density dependence of anti-HCMV activity (reported): cell-density dependent
non-infected HFFs [3]
  Cell cycle effect (reported): arrest cell cycle in early G1

## Nc1nc(O)c2ncn(COC(CO)CO)c2n1 [GCV, ganciclovir, reference compound]
[4]
  Expression level of CDKs, pRb and E2F1: did not exhibit any effects on pRb/CDKs expression
[5]
  Luciferase expression from UL99 (pp28) late promoter: almost completely inhibited

## CC(C)(N)CNC(=O)C[C@H]1CC[C@]2(CC1)OO[C@]1(O2)C2CC3CC(C2)CC1C3 [OZ277, arterolane, reference compound]
MTT cell viability assay
  CC50 at 3 days: 33.7 ± 1 µM
[6]
  Selectivity index (SI): 1.98 ± 0.09
  EC50: 17.1 ± 1.31 µM

## O=C(O)COc1ccc([C@H]2CC[C@]3(CC2)OO[C@]2(O3)C3CC4CC(C3)CC2C4)cc1 [OZ418]
[1]
  Combination effect with GCV against HCMV: synergistic activity with GCV
[4]
  Expression level of CDKs, pRb and E2F1: reduced
non-infected HFFs [7]
  Cell cycle progression: did not influence cell cycle progression
pp28-luciferase HCMV
  Timing of anti-HCMV activity: early-late inhibitor of HCMV
HCMV TB40 strain
  EC50: 8.53 ± 0.09 µM
HCMV-infected HFFs
  Cell cycle progression: delayed cell cycle progression
GCV-resistant CMV strain
  Inhibition of GCV-resistant strain: inhibited
[8]
  Expression of CDKs, pRB and E2F1: unchanged; also recorded: did not decrease the expression of pRb or any of the tested CDKs
MTT cell viability assay
  CC50 at 3 days: 128 ± 8 µM
[9]; high-density HFFs, FIG. 8A
  HCMV inhibition in high-density HFFs: effectively inhibited HCMV
[9]; low density and high density human fibroblast cells
  Cell-density dependence of anti-HCMV activity: cell-density dependent
[9]; low-density HFFs, FIG. 8A
  Activity against HCMV in low-density HFFs: significantly reduced
[6]
  Selectivity index (SI): 13.06 ± 0.48
  EC50: 9.8 ± 0.25 µM
MCMV; OZ418 once daily vs AS orally twice daily, FIG. 5 D-F
  MCMV inhibition compared to AS: more effective in MCMV inhibition
MCMV; salivary gland, liver and spleen, day 14 after infection, OZ418 1, 3 or 10 mg/kg orally once daily
  MCMV replication in organs: effectively inhibits mouse CMV replication; also recorded: dose response was observed
HCMV entry
  Inhibition of HCMV entry: did not inhibit HCMV entry

## c1cc([C@H]2CC[C@]3(CC2)OO[C@]2(O3)C3CC4CC(C3)CC2C4)ccc1OCCN1CCOCC1 [OZ439, artefenomel]
[6]
  EC50: 13.2 ± 1.27 µM

## OC1CCN(CCOc2ccc([C@H]3CC[C@]4(CC3)OO[C@]3(O4)C4CC5CC(C4)CC3C5)cc2)CC1 [OZ513b]
MTT cell viability assay
  CC50 at 3 days: 49.4 ± 3.67 µM
[6]
  Selectivity index (SI): 3.14 ± 0.20
  EC50: 15.7 ± 0.87 µM

## O=C(O)C1CCN(CCOc2ccc([C@H]3CC[C@]4(CC3)OO[C@]3(O4)C4CC5CC(C4)CC3C5)cc2)CC1 [OZ721]
MTT cell viability assay
  CC50 at 3 days: 45.5 ± 6.82 µM
[6]
  Selectivity index (SI): 7.89 ± 0.35
  EC50: 5.75 ± 0.74 µM

## O=C(O)P(=O)(O)O [foscarnet]
[5]
  Luciferase expression from UL99 (pp28) late promoter: almost completely inhibited
